The numbers were not newly measured in patent publication US4665086A, “Method for minimizing disturbances in circadian rhythms of bodily performance and function” (priority 1983, dated 1987), which cites them from elsewhere.

Each structure is given as a SMILES string.

The subject of one data set is laboratory animals. To be noted: chronic administration, cited from earlier work; for effect on rhythm (splitting): monoamine oxidase inhibitors.
In a further data set the test system is melatonin synthesis. To be noted: rats, exogenous administration; cited from earlier work.
For data set [1], the system named is endogenous melatonin secretion. To be noted: beta blocker; cited from earlier work.

`C#CCN(C)CCCOc1ccc(Cl)cc1Cl` [clorgyline]: in the data set with laboratory animals, the “effect on rhythm (splitting)” value is “split the rhythm” and the “effect on unentrained, free-running period” value (shortened to “effect … free-running period”) is “lengthens the unentrained, free-running period”.

As to `[2H]O[2H]` [heavy water (D2 O)], the “effect … free-running period” value in the data set with laboratory animals is “lengthens the unentrained, free-running period”.

As to `CN(C)CCCN1c2ccccc2CCc2ccccc21` [imipramine], in the data set on laboratory animals, the “effect on rhythm (splitting)” value is “split the rhythm” and the “effect … free-running period” value was “lengthens the unentrained, free-running period”.

Turning to `N[C@@H](Cc1ccc(O)c(O)c1)C(=O)O` [L-dopa], the “effect on melatonin synthesis” value in the data set with melatonin synthesis is on record as “stimulates melatonin synthesis”.

For `CC(C)NC[C@H](O)COc1cccc2ccccc12` (racemic) [PROPANOLOL], in data set [1], the “effect on endogenous melatonin secretion” value is “can inhibit endogenous melatonin secretion”.

In the case of `[Li]` [lithium], in the data set on laboratory animals, the “effect … free-running period” value was “lengthens the unentrained, free-running period”.
